Results reported in US20230091047A1 (priority 2019, published 2023).
Read-outs that look alike come from different tables or passages of the source.

How the values were obtained:
in vitro = type: cell-based; details: human, HepG2 or HepG2.117 cells, mean value
Method in brief: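 Luminescent ATP quantitation served as the viability endpoint following a 3- or 4-day incubation with test compounds.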

[1] = system: HBV (HepG2.117 cell line, inducibly HBV producing); assay: Anti-HBV activity: intracellular HBV DNA by real-time PCR in HepG2.117 cells after 3 days of treatment; type: cell-based, hepatitis B virus
Method in brief: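 Inducible HBV-producing HepG2.117 line (Tet-off); 3-day exposure to serially diluted compound after induction; real-time PCR of intracellular viral DNA.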

[2] = 3-days incubation (unmarked values), ATPlite
[3] = Hepatitis B virus, HepG2.117, 72 h, HepG2.117 cells, 3 days of treatment, intracellular HBV DNA by real-time PCR; mean value; read-out: EC50 (μM, mean value)
[4] = ATPlite, 3-days incubation (not marked with *)
[5] = Hepatitis B virus, HepG2.117, 72 h, HepG2.117 cells, intracellular HBV DNA by real-time PCR, 3 days of treatment, mean value; read-out: EC50 (μM, mean value)

SMILES | CC50 at 3 days (in vitro; [2]) [µM] | EC50 [1, 3] [µM] | CC50 at 3 days (in vitro; [4]) [µM] | EC50 [1, 5] [µM] | further results
CC(C)Nc1nc2c(c(=O)n1-c1ccc(-c3nccs3)cc1)C[C@@H](C)N(C(=O)c1ccc(Cl)c(Cl)c1)C2 [Compound C240, (6R)-7-(3,4-dichlorobenzoyl)-6-methyl-2-[(propan-2-yl)amino]-3-[4-(1,3-thiazol-2-yl)phenyl]-5,6,7,8-tetrahydropyrido[3,4-d]pyrimidin-4(3H)-one] | > 50 | 0.13 |  |  | 
CC(C)Nc1nc2c(c(=O)n1-c1ccc(S(C)(=O)=O)cc1)CCN(C(=O)c1cc3ccccc3o1)C2 [Compound C152, 7-(1-benzofuran-2-carbonyl)-3-[4-(methanesulfonyl)phenyl]-2-[(propan-2-yl)amino]-5,6,7,8-tetrahydropyrido[3,4-d]pyrimidin-4(3H)-one] | > 50 | 30.8 |  |  | 
COc1ccc(CNc2nc3c(c(=O)n2-c2ccc(S(C)(=O)=O)cc2)C[C@@H](c2ccc(F)cc2)N(C(=O)c2ccc(Cl)c(Cl)c2)C3)cc1 (single isomer, unassigned) [Compound C109A, (6*S)-7-(3,4-dichlorobenzoyl)-6-(4-fluorophenyl)-3-[4-(methanesulfonyl)phenyl]-2-{[(4-methoxyphenyl)methyl]amino}-5,6,7,8-tetrahydropyrido[3,4-d]pyrimidin-4(3H)-one] | > 50 | > 50 |  |  | 
CNC(=O)c1ccc([C@H](C)Nc2nc3c(c(=O)n2-c2ccc(C(=O)NC)cc2)C[C@@H](C)N(C(=O)c2ccc(Cl)c(Cl)c2)C3)cc1 (single isomer, unassigned) [Compound C530b] |  |  | > 50 | > 10 | 
CC(C)NC(=O)c1ccc(-n2c(NC(C)C)nc3c(c2=O)C[C@@H](C)N(C(=O)c2ccc(Cl)c(Cl)c2)C3)cc1 [Compound C178, 4-[(6R)-7-(3,4-dichlorobenzoyl)-6-methyl-4-oxo-2-[(propan-2-yl)amino]-5,6,7,8-tetrahydropyrido[3,4-d]pyrimidin-3(4H)-yl]-N-(propan-2-yl)benzamide] | > 50 | 0.04 |  |  | 
CNC(=O)c1ccc(-n2c(NC(C)C)nc3c(c2=O)C[C@@H](C)N(C(=O)c2ccc(C)c(F)c2)C3)cc1 [Compound C515] |  |  | > 50 | 1.14 | 
CNC(=O)c1cc(-n2c(N[C@@H](C)c3ccc(F)cc3)nc3c(c2=O)C[C@@H](C)N(C(=O)c2ccc(Cl)c(C(F)(F)F)c2)C3)n(C)n1 [Compound C658] |  |  | 32.2 | 0.07 | 
COc1ccc(CNc2nc3c(c(=O)n2-c2ccc(C(N)=O)cc2)CCN(C(=O)c2ccc(Cl)c(Cl)c2)C3)cc1 [Compound C149, 4-[7-(3,4-dichlorobenzoyl)-2-{[(4-methoxyphenyl)methyl]amino}-4-oxo-5,6,7,8-tetrahydropyrido[3,4-d]pyrimidin-3(4H)-yl]benzamide] | 23.2 | 1.5 |  |  | 
COc1ccc([C@H](C)Nc2nc3c(c(=O)n2-c2ccc(NC(C)=O)cc2)C[C@@H](C)N(C(=O)c2ccc(Cl)c(Cl)c2)C3)cc1 (single isomer, unassigned) [Compound C410b] |  |  | > 50 |  | EC50 ([1]; HepG2.117 cells, intracellular HBV DNA by real-time PCR, 3 days of treatment, mean value; read-out: EC50 (μM, mean value)): 0.11 µM
CNC(=O)c1ccc(-n2c(NC(C)C)nc3c(c2=O)C[C@@H](C)N(C(=O)c2ccc(Cl)c(Cl)c2)C3)c(C(F)(F)F)c1 (atropisomer, axis not shown) [Compound C340a, 4-[(6R)-7-(3,4-dichlorobenzoyl)-6-methyl-4-oxo-2-[(propan-2-yl)amino]-5,6,7,8-tetrahydropyrido[3,4-d]pyrimidin-3(4H)-yl]-N-methyl-3-(trifluoromethyl)benzamide] | 23.2 |  |  |  | EC50 ([1]; HepG2.117 cells, 3 days of treatment, intracellular HBV DNA by real-time PCR; mean value; read-out: EC50 (μM, mean value)): 0.1 µM
CNC(=O)c1ccc(-n2c(NC(C)C)nc3c(c2=O)C[C@@H](C)N(C(=O)c2ccc(Cl)c(C)c2)C3)cc1 [Compound C429] |  |  | > 50 | 0.06 | 
CNC(=O)c1cc(Cl)c(-n2c(NC(C)C)nc3c(c2=O)C[C@@H](C)N(C(=O)c2ccc(Cl)c(Cl)c2)C3)cc1OC [Compound C322, 5-chloro-4-[(6R)-7-(3,4-dichlorobenzoyl)-6-methyl-4-oxo-2-[(propan-2-yl)amino]-5,6,7,8-tetrahydropyrido[3,4-d]pyrimidin-3(4H)-yl]-2-methoxy-N-methylbenzamide] | 24.2 | 0.28 |  |  | 
CNC(=O)c1cc(-n2c(N[C@@H](C)c3ccc(F)cc3)nc3c(c2=O)C[C@@H](C)N(C(=O)c2ccc(Cl)c(Cl)c2)C3)[nH]n1 [Compound C432] |  |  | 21.4 | 0.1 | 
COc1ccccc1-n1c(NC2CCc3ccccc32)nc2c(c1=O)CCN(C(=O)c1ccc(Cl)c(Cl)c1)C2 (centres unmarked) [Compound C55, 7-(3,4-dichlorobenzoyl)-2-[(2,3-dihydro-1H-inden-1-yl)amino]-3-(2-methoxyphenyl)-5,6,7,8-tetrahydropyrido[3,4-d]pyrimidin-4(3H)-one] | 23.6 | 22.1 |  |  | 
CNC(=O)c1ccc(-n2c(NC(C)C)nc3c(c2=O)C[C@@H](C)N(C(=O)c2ccc(OC(F)F)c(Br)c2)C3)cc1 [Compound C571] |  |  | > 50 | 0.09 | 
CNC(=O)c1ccc(-n2c(N3CC[C@H]3c3ccccc3)nc3c(c2=O)C[C@@H](C)N(C(=O)c2ccc(Cl)c(Cl)c2)C3)cc1 (single isomer, unassigned) [Compound C349, 4-[(6R)-7-(3,4-dichlorobenzoyl)-6-methyl-4-oxo-2-[(2*S)-2-phenylazetidin-1-yl]-5,6,7,8-tetrahydropyrido[3,4-d]pyrimidin-3(4H)-yl]-N-methylbenzamide] | 31.7 | 0.32 |  |  | 
CC(C)NC(=O)c1cnc(-n2c(NC(C)C)nc3c(c2=O)C[C@@H](C)N(C(=O)c2ccc(Cl)c(C(F)(F)F)c2)C3)cn1 [Compound C694] |  | 0.05 |  |  | CC50 at 3 days (in vitro; 3-days incubation (unmarked values), ATPlite viability): > 50 µM
CNC(=O)c1ccc(-n2c(N[C@@H](C)CCO)nc3c(c2=O)C[C@@H](C)N(C(=O)c2ccc(Cl)c(Cl)c2)C3)cc1 [Compound C276, 4-[(6R)-7-(3,4-dichlorobenzoyl)-2-{[(2S)-4-hydroxybutan-2-yl]amino}-6-methyl-4-oxo-5,6,7,8-tetrahydropyrido[3,4-d]pyrimidin-3(4H)-yl]-N-methylbenzamide] | > 50 | 1.68 |  |  | 
CNC(=O)c1ccc(-n2c(N[C@@H](C)c3ccc(F)c(OC)c3)nc3c(c2=O)C[C@@H](C)N(C(=O)c2ccc(Cl)c(Cl)c2)C3)cc1 (single isomer, unassigned) [Compound C435b] |  |  | 45.8 | 1.29 | 
CC(C)Nc1nc2c(c(=O)n1-c1ccc(-c3ccn4ccnc4c3)cc1)C[C@@H](C)N(C(=O)c1ccc(Cl)c(Cl)c1)C2 [Compound C189, (6R)-7-(3,4-dichlorobenzoyl)-3-[4-(imidazo[1,2-a]pyridin-7-yl)phenyl]-6-methyl-2-[(propan-2-yl)amino]-5,6,7,8-tetrahydropyrido[3,4-d]pyrimidin-4(3H)-one] | 9.8 | 0.1 |  |  | 
CNC(=O)c1ccc(-n2c(NCc3nnc(C(C)C)[nH]3)nc3c(c2=O)C[C@@H](C)N(C(=O)c2ccc(Cl)c(Cl)c2)C3)cc1 [Compound C545] |  |  | > 50 | > 25 | 
CNC(=O)c1ccc(-n2c(N3C[C@@H](C#N)[C@H](c4ccccc4)C3)nc3c(c2=O)C[C@@H](C)N(C(=O)c2ccc(Cl)c(Cl)c2)C3)cc1 [Compound C487] |  |  | > 50 | 0.25 | 
CC(C)Nc1nc2c(c(=O)n1-c1ccc(N3CCCC3CO)cc1)C[C@@H](C)N(C(=O)c1ccc(Cl)c(Cl)c1)C2 (stereo partly drawn) [Compound C215, (6R)-7-(3,4-dichlorobenzoyl)-3-{4-[2-(hydroxymethyl)pyrrolidin-1-yl]phenyl}-6-methyl-2-[(propan-2-yl)amino]-5,6,7,8-tetrahydropyrido[3,4-d]pyrimidin-4(3H)-one] | 31.9 | 0.21 |  |  | 
CNC(=O)c1ccc(-n2c(Nc3cn(C)nn3)nc3c(c2=O)C[C@@H](C)N(C(=O)c2ccc(Cl)c(Cl)c2)C3)cc1 [Compound C421] |  |  | > 50 | > 8.1 | 
CNC(=O)c1cc(-n2c(NC(C)C)nc3c(c2=O)C[C@@H](C)N(C(=O)c2ccc(Cl)c(C(F)(F)F)c2)C3)[nH]n1 [Compound C687] |  |  | > 50 | 0.02 | 
COc1ccccc1-n1c(NC(C)(C)C)nc2c(c1=O)CCN(C(=O)c1ccc(Cl)c(Cl)c1)C2 [Compound C53, 2-(tert-butylamino)-7-(3,4-dichlorobenzoyl)-3-(2-methoxyphenyl)-5,6,7,8-tetrahydropyrido[3,4-d]pyrimidin-4(3H)-one] | 31.6 | 2.05 |  |  | 
CNC(=O)c1ccc(-n2c(N3CCCCCC3)nc3c(c2=O)C[C@@H](C)N(C(=O)c2ccc(Cl)c(Cl)c2)C3)cc1 [Compound C467] |  |  | 30 | 0.1 | 
CNC(=O)c1ccc(-n2c(N[C@H](C)c3ccccn3)nc3c(c2=O)C[C@@H](C)N(C(=O)c2ccc(Cl)c(Cl)c2)C3)cc1 (single isomer, unassigned) [Compound C320, 4-[(6R)-7-(3,4-dichlorobenzoyl)-6-methyl-4-oxo-2-{[(1*R)-1-(pyridin-2-yl)ethyl]amino}-5,6,7,8-tetrahydropyrido[3,4-d]pyrimidin-3(4H)-yl]-N-methylbenzamide] | > 50 | 0.27 |  |  | 
